Reference: patent US20170226139A1, “CRYSTALLINE SALTS OF (Z)-O-OCTADEC-9-EN-1-YL O,O-DIHYDROGEN PHOSPHOROTHIOATE” (priority 2013, published 2017)
Where two headings read alike, the source gives them in different places.

Tests used:
[1] = tested on: female murine Animal Model of GI-ARS (TAI); test: Survival after total abdominal irradiation (TAI), murine model of GI-ARS (UTHSC, 2010); format: in vivo; details: UTHSC 2010 (TAI), 0.1 mg/kg, start +24, 15.0 Gy, non-GLP
Description: (§1) These Animal Model studies were all conducted using partial body irradiation (PBI) with tibial bone marrow sparing except the earliest study which was performed with Total Abdominal Irradiation (TAI). The male Rhesus macaque model was developed by MacVittie. The female inbred murine PBI GI-ARS Animal Model was developed by the inventors. […] Differences in radiation sensitivity by gender in rodent species are well appreciated. We are not aware of PBI GI-ARS models other than these that meet criteria required to conduct a prospective, blinded, controlled, randomized study of efficacy.

[2] = biological target: T1, Human LPA2 (Homo sapiens, UniProt Q9HBW0); test: Competition binding assay, displacement of [3H]LPA from membranes of transfected HEK293 cells; parameters: expressed in transfected cells; host or cells: HEK293 (crude membrane fraction); details: 20 nM [3H]LPA; membranes of HEK293 cells transfected with human LPA2
Description: A further study was performed to evaluate whether Rx100 displaces lysophosphatidic acid bound to its receptor. HEK293 cells were transfected with human LPA2 receptor.

[3] = tested on: male Rhesus macaque Animal Model of GI-ARS; test: Survival after partial body irradiation, male Rhesus macaque Animal Model of GI-ARS; format: in vivo
Description: Using a partial body irradiation (tibial sparing) animal model in the female C57BL/6 mice, we tested the survival advantages conferred by GMP Rx100.L-Lysine salt. As a result, when administered at 0.3 to 3 mg/kg/12 h×6 doses starting at +24 hours after exposure to 15.5 to 15.7 Gy from a ^137Cesium irradiator which otherwise reliably produces an LD70-90/10 (in 10 days, 70-90% mice die after irradiation), the mortality was reduced by 20% to 50%. When administered at 0.1 mg/kg/day×6 doses in a partial body irradiation Animal Model in 19 male Rhesus macaque, a 37% increase in survival at a normally LD70/34 dose of X-ray radiation was observed. By allometric scaling using body surface area, these lowest effective doses translate to 0.02 mg/kg/day and to 0.03 mg/kg/day in humans, respectively.
as §1

[4] = biological target: T2, Human LPA3 (Homo sapiens, UniProt Q9UBY5); test: Calcium-mobilization assay (FURA-2), human LPA3 transfected cells; format: cell-based; details: for EC50: EC50 [nM], mean
T2 construct: expressed in transfected cells; host or cells: mouse embryonic fibroblasts (MEF) or rat hepatoma RH7777
T2 sequence (Q9UBY5 1-353): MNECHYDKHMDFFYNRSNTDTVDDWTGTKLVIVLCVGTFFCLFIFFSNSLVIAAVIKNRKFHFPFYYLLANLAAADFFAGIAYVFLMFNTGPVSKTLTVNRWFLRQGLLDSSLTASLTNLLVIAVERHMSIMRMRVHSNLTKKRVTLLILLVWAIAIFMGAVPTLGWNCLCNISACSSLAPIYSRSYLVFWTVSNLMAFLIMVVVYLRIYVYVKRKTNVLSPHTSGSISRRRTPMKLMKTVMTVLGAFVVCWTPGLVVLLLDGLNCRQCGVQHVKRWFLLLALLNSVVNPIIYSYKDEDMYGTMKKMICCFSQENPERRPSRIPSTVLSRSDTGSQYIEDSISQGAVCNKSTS
Description: (§2) We investigated structure-activity relationships across species, LPAR subtypes and between Rx100 and two known process impurities encountered in manufacture: Rx103 (‘E’ isomer) and Rx200 (oleyl phosphate and impurity, which can be an Rx100 degradant along with oleyl alcohol). Rx100, Rx103, Rx200 and native LPA were investigated at different human LPAR subtypes. In addition, the activity of these compounds was evaluated at LPA2 receptors from the rhesus, rat and mouse species. Human LPA1/2/3 subtypes were transfected into mouse embryonic fibroblasts (MEF) or rat hepatoma cells (RH7777)—both of which are normally non-responsive or null to LPA. Human LPA4 was transfected into Chinese hamster ovary (CHO) cells and LPA5 into the B103 neuroblastoma cell line. […] The B103 rat neuroblastoma cell line is endogenously nonresponsive to LPA but expresses heterologous LPA5 receptors well. […] LPAR activation elicits a G-protein-mediated transient rise in intracellular calcium level that is proportional to the concentration of LPA applied. The intracellular calcium level was quantified by the calcium-selective fluorescent indicator FURA-2 (e.g., increased intracellular calcium surge=increased fluorescence).

[5] = biological target: T1, Human LPA2; test: Calcium-mobilization assay (FURA-2), human LPA2 transfected cells; format: cell-based; parameters: expressed in transfected cells; host or cells: mouse embryonic fibroblasts (MEF) or rat hepatoma RH7777
Description: as §2

[6] = Gravimetric moisture sorption analysis, with XRPD afterwards; format: physicochemical
Description: Moisture sorption analysis of the Rx100.L-Lysine salt was performed by equilibrating the sample at 25° C. and 50% RH to simulate ambient lab conditions. Humidity then decreased to 0% RH, increased from 0 to 95% RH, reduced from 95 to 0% RH, increased from 0 to 95% RH and then decreased from 95 to 50% RH.

[7] = physchem; details: thermodynamic from solid
[8] = Qualitative solubility of Rx100.L-Lysine salt in 13 additional solvents; format: physicochemical; details: for Observation (qualitative solubility): ~50 mg solid
From the text: The solubility of Rx100.L-Lysine salt was further tested in 13 additional solvents.

[9] = UC Davis 2011, Rhesus (♂), 0.1 mg/kg (q24 × 6), start +4, 11.5 Gy, non-GLP
[10] = UC Davis 2011, Rhesus (♂), 0.1 mg/kg (q24 × 6), start +4, 11.5 Gy, non-GLP, vs vehicle

T1 sequence (Q9HBW0 whole entry): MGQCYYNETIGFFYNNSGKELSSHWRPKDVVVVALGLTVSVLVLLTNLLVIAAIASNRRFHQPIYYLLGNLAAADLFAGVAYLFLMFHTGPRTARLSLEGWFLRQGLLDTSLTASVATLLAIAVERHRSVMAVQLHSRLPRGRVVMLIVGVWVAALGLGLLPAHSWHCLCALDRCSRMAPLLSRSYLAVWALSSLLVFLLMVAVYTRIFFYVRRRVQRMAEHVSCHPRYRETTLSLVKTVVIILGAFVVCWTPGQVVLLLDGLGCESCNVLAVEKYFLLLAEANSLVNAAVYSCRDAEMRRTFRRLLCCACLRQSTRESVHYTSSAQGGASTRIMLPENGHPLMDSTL

## CCCCCCCC/C=C\CCCCCCCCOP(O)(O)=S [Rx100, (Z)—O-octadec-9-en-1-yl O,O-dihydrogen phosphorothioate]
[1]; single cell under Day 10/Day ≧30
  Survival, Rx100 arm (survivors/animals): 10/14
[1]; single cell under Day 10/Day ≧30, vs vehicle
  Survival advantage: 42%
[2]
  displacement of 3H-LPA: displaced 3H-LPA in a concentration-dependent manner
[3]; [9]
  Survival Day 10, Rx100 arm (survivors/animals): 2/9
  Survival Day ≧30, Rx100 arm (survivors/animals): 6/9
[3]; [10]
  Survival Advantage Day 10: 8%
  Survival Advantage Day ≧30: 37%
[4]; LPA3 DKO MEF, human
  EC50: 205 nM
[4]; LPA3 RH7777, human
  EC50: 113 nM
[4]; RH7777, read-out: Emax (% of LPA)
  Emax: 71%
[4]; read-out: Emax (% of LPA)
  Emax: 82%
[5]
  EC50: 124 nM
[5]; read-out: Emax (% of LPA)
  Emax: 100%

## CCCCCCCC/C=C\CCCCCCCCOP(O)(O)=S [Rx100.L-Lysine, (Z)—O-octadec-9-en-1-yl O,O-dihydrogen phosphorothioate]
[3]; 0.1 mg/kg/day×6 doses, 19 male Rhesus macaque, normally LD70/34 dose of X-ray radiation
  increase in survival: 37%
[6]
  Hygroscopicity: hygroscopic
  Residual water content after desorption: < 3%
[6]; at 95% RH, 25° C.
  Water adsorbed in moisture sorption analysis: 20.6%
[6]; compared with Pattern A
  Form by XRPD after moisture sorption analysis: no change in form
[7]; simulated formulation solvent, aqueous with cosolvent or surfactant or cyclodextrin
  solubility: > 43 mg/mL
[7]; water
  solubility: > 48 mg/mL
[8]; Acetone:water (1:1), 0.5 mL added
  Observation (qualitative solubility): dissolved
[8]; Acetone, 0.75 mL added
  Observation (qualitative solubility): slurry
[8]; EtOH:water (1:1), 0.75 mL added
  Observation (qualitative solubility): dissolved
[8]; EtOH:water (8:2), 0.75 mL added
  Observation (qualitative solubility): cloudy
[8]; EtOH, 0.75 mL added
  Observation (qualitative solubility): slurry
[8]; IPA-water (1:1)
  Qualitative solubility: soluble
[8]; IPA:water (1:1), 0.75 mL added
  Observation (qualitative solubility): dissolved
[8]; IPA:water (8:2), 0.75 mL added
  Observation (qualitative solubility): oil
[8]; IPA, 0.75 mL added
  Observation (qualitative solubility): slurry
[8]; MeOH:water (1:1), 0.5 mL added
  Observation (qualitative solubility): dissolved
[8]; MeOH:water (8:2), 0.75 mL added
  Observation (qualitative solubility): dissolved
[8]; MeOH, 0.75 mL added
  Observation (qualitative solubility): slurry
[8]; THF:water (1:1), 0.5 mL added
  Observation (qualitative solubility): oil
[8]; THF, 0.75 mL added
  Observation (qualitative solubility): slurry
[8]; acetone:water (1:1)
  Qualitative solubility: soluble
[8]; ethanol:water (1:1)
  Qualitative solubility: soluble
[8]; methanol:water (1:1)
  Qualitative solubility: soluble
[8]; methanol:water (8:2)
  Qualitative solubility: soluble
